Results published in ChEMBL document CHEMBL4346728, “Discovery and development of DNA polymerase IIIC inhibitors to treat Gram-positive infections” (Bioorg Med Chem, 2019).
≈ marks a conversion by molar mass, not a printed value. Calls of active or inactive are those of the source. No cut-off for these calls is given here.

Experiments:
Enterococcus faecium [1] = experiment: Antibacterial activity against vancomycin-resistant Enterococcus faecium by CLSI guideline based method; type: functional
Streptococcus pyogenes = experiment: Antibacterial activity against macrolide-resistant Streptococcus pyogenes by CLSI guideline based method; type: functional
Staphylococcus aureus [2] = experiment: Antibacterial activity against methicillin-resistant Staphylococcus aureus by CLSI guideline based method; type: functional
[3] = Inhibition of Bacillus subtilis DNA polymerase 3
Enterococcus faecium [4] = experiment: Antibacterial activity against Enterococcus faecium incubated for 16 to 24 hrs by microplate reader analysis; type: functional
Bacillus subtilis [5] = experiment: Antibacterial activity against Bacillus subtilis ATCC BD54 incubated for 16 to 24 hrs by microplate reader analysis; type: functional
Staphylococcus aureus [6] = experiment: Antibacterial activity against Staphylococcus aureus ATCC 25923 incubated for 16 to 24 hrs by microplate reader analysis; type: functional
Enterococcus faecalis [7] = experiment: Antibacterial activity against Enterococcus faecalis ATCC 29212 incubated for 16 to 24 hrs by microplate reader analysis; type: functional
Escherichia coli = experiment: Antibacterial activity against Escherichia coli J53 incubated for 16 to 24 hrs by microplate reader analysis; type: functional
Enterococcus faecium [8] = experiment: Antibacterial activity against vancomycin-resistant Enterococcus faecium incubated for 16 to 24 hrs by microplate reader analysis; type: functional
[9] = Inhibition of recombinant Bacillus subtilis DNA polymerase 3C expressed in Escherichia coli using activated calf thymus DNA as substrate after 10 mins in presence of dATP/dCTP/[3H]dTTP/dATP by liquid scintillation counting analysis
Staphylococcus aureus [10] = experiment: Antibacterial activity against methicillin-resistant Staphylococcus aureus B42876 incubated for 16 to 24 hrs by microplate reader analysis; type: functional
Bacillus subtilis [11] = experiment: Antibacterial activity against Bacillus subtilis ATCC BD54 incubated for 16 to 18 hrs by microplate reader analysis; type: functional
[12] = Inhibition of Staphylococcus aureus R27 DNA polymerase 3C using activated calf thymus DNA as substrate in presence of dATP/dGTP/dCTP/[3H]dTTP measured for 20 mins
Staphylococcus aureus [13] = experiment: Antibacterial activity against Staphylococcus aureus MB2865 incubated for overnight; type: functional
Enterococcus faecium [14] = experiment: Antibacterial activity against Enterococcus faecium RLA1 incubated for overnight; type: functional
Bacillus subtilis [15] = experiment: Antibacterial activity against Bacillus subtilis F2 incubated for overnight; type: functional
[16] = Inhibition of recombinant Staphylococcus aureus DNA polymerase 3C expressed in Escherichia coli BL21 cells assessed as assessed as reduction in [3H]dTTP incorporation in to activated calf thymus DNA using calf thymus DNA as substrate incubated for 30 mins by scintillation counting analysis
Streptococcus pneumoniae [17] = experiment: Antibacterial activity against Streptococcus pneumoniae MCL5350 incubated for overnight; type: functional
Clostridioides difficile [18] = experiment: Antibacterial activity against vancomycin-resistant Clostridium difficile by CLSI method; type: functional
Clostridioides difficile [19] = experiment: Antibacterial activity against Clostridium difficile by CLSI method; type: functional
Clostridioides difficile [20] = experiment: Antibacterial activity against metronidazole-resistant Clostridium difficile by CLSI method; type: functional
Clostridioides difficile [21] = experiment: In vivo inhibition of Clostridium difficile ATCC 43255 infected in golden syrian hamster assessed as reduction in recurrence rate at 50 mg/kg, po bid for 7 days relative to control; type: functional; settings: 168 h
Staphylococcus aureus [22] = experiment: Antibacterial activity against Staphylococcus aureus 133 incubated for 18 hrs by broth microdilution method; type: functional; settings: Staphylococcus aureus, 133, 18 h
[23] = Inhibition of bacterial DNA polymerase 3C using dATP/dCTP/dTTP/dGTP as substrate in presence of activated calf thymus DNA incubated for 15 mins and measured for 1 min by luciferase based enzymatic assay; parameters: species or system Bacteria
Enterococcus faecalis [24] = experiment: Antibacterial activity against Enterococcus faecalis ICB 27159 infected in CFW1 mouse assessed as mouse survival at 5 mg/kg, iv administered at 30 mins post infection and measured over 5 days; type: functional, organism-based
Staphylococcus aureus [25] = experiment: Antibacterial activity against Staphylococcus aureus 133 infected in CFW1 mouse, iv administered at 30 mins post infection and measured over 5 days; type: functional; settings: Staphylococcus aureus, 133, iv
Streptococcus pneumoniae [26] = experiment: Antibacterial activity against Streptococcus pneumoniae 1707/4 incubated for 18 hrs under microaerophilic condition by broth microdilution method; type: functional; settings: 1707/4, 18 h
Enterococcus faecalis [27] = experiment: Antibacterial activity against Enterococcus faecalis ICB 27159 incubated for 18 hrs under microaerophilic condition by broth microdilution method; type: functional; settings: ICB 27159, 18 h

With `CS(=O)(=O)CCOCc1csc(NC(=O)NCc2ccc(Cl)c(Cl)c2)n1` the MIC90 (Enterococcus faecium [1]) was 1 to 8 µg/mL (≈ 2.28 to 18.2 µM), the MIC90 (Streptococcus pyogenes) was 1 to 8 µg/mL (≈ 2.28 to 18.2 µM) and the MIC90 (Staphylococcus aureus [2]) was 1 to 8 µg/mL (≈ 2.28 to 18.2 µM).

For `CCc1cc(Nc2cc(O)nc(O)n2)ccc1C`, the IC50 [3] was 1000 nM.

In the case of `CCc1cc(Nc2cc(=O)n(CCCCO)c(=O)[nH]2)ccc1C`, the MIC (Enterococcus faecium [4]) is reported as 2.5 µg/mL (≈ 7.88 µM), the MIC (Bacillus subtilis [5]) is reported as under 1.25 µg/mL and the MIC (Staphylococcus aureus [6]) is reported as 5 µg/mL (≈ 15.8 µM). For the same compound, the MIC (Enterococcus faecalis [7]) was 5 µg/mL (≈ 15.8 µM), the MIC (Escherichia coli) was over 20 µg/mL and the MIC (Enterococcus faecium [8]) was 2.5 µg/mL (≈ 7.88 µM). For the same compound, the IC50 [9] was 63 nM and the MIC (Staphylococcus aureus [10]) was 5 µg/mL (≈ 15.8 µM).

For `CCc1cc(Nc2cc(=O)n(CCCCN3CCCCC3)c(=O)[nH]2)ccc1C`, the MIC (Enterococcus faecium [4]) was 20 µg/mL (≈ 52 µM), the MIC (Bacillus subtilis [5]) was 10 µg/mL (≈ 26 µM) and the MIC (Staphylococcus aureus [6]) was 20 µg/mL (≈ 52 µM). It also gave an MIC (Enterococcus faecalis [7]) of 20 µg/mL (≈ 52 µM), an MIC (Escherichia coli) of over 20 µg/mL and an MIC (Enterococcus faecium [8]) of 10 µg/mL (≈ 26 µM). It also gave an IC50 [9] of 28 nM and an MIC (Staphylococcus aureus [10]) of 40 µg/mL (≈ 104 µM).

Compound `COc1ccc(-c2cc(C(=O)N/N=C/c3cc(OC)c(OC)c(OC)c3)[nH]n2)cc1` has an MIC (Bacillus subtilis [11]) of 0.625 µg/mL (≈ 1.52 µM) and an IC50 [9] of 200 nM.

In the case of `CCc1cc(Nc2cc(Oc3ccc(Br)cc3)nc(N)n2)ccc1C`, the IC50 [12] is reported as 10000 nM.

For `Cc1noc(C)c1C(=O)N(C)Cc1csc(NC(=O)NCc2cccc(F)c2)n1`, the MIC90 (Enterococcus faecium [1]) was 1 to 4 µg/mL (≈ 2.4 to 9.58 µM), the MIC90 (Streptococcus pyogenes) was 1 to 4 µg/mL (≈ 2.4 to 9.58 µM) and the MIC90 (Staphylococcus aureus [2]) was 1 to 4 µg/mL (≈ 2.4 to 9.58 µM).

`CCc1cc(Nc2nc(O)c3c[nH]nc3n2)ccc1C` gave an MIC (Staphylococcus aureus [13]) of at least 9 µg/mL, an MIC (Enterococcus faecium [14]) of at least 9 µg/mL and an MIC (Bacillus subtilis [15]) of at least 9 µg/mL. For the same compound, the IC50 [16] was 71000 nM and the MIC (Streptococcus pneumoniae [17]) was at least 9 µg/mL.

`O=c1[nH]c(NCc2ccc(Cl)c(Cl)c2)nc2ncn(CCN3CCOCC3)c12` [IBEZAPOLSTAT] showed an MIC50 (Clostridioides difficile [18]) of 2 µg/mL (≈ 4.72 µM), an MIC90 (Clostridioides difficile [18]) of 4 µg/mL (≈ 9.45 µM) and an MIC50 (Clostridioides difficile [19]) of 2 µg/mL (≈ 4.72 µM). It also gave an MIC90 (Clostridioides difficile [19]) of 4 µg/mL (≈ 9.45 µM), an MIC50 (Clostridioides difficile [20]) of 2 µg/mL (≈ 4.72 µM) and an MIC90 (Clostridioides difficile [20]) of 4 µg/mL (≈ 9.45 µM). It also gave an inhibition in vivo at 50 mg/kg (Clostridioides difficile [21]) of 40%.

Work on `COCCS(=O)(=O)Cc1csc(NC(=O)NCc2ccc(Cl)c(Cl)c2)n1` yielded an MIC (Enterococcus faecium [1]) of 0.5 to 4 µg/mL (≈ 1.14 to 9.12 µM), an MIC (Streptococcus pyogenes) of 0.5 to 4 µg/mL (≈ 1.14 to 9.12 µM) and an MIC (Staphylococcus aureus [2]) of 0.5 to 4 µg/mL (≈ 1.14 to 9.12 µM).

With `CN[C@H](CC(C)C)C(=O)N[C@H]1C(=O)N[C@@H](CC(N)=O)C(=O)N[C@H]2C(=O)N[C@H]3C(=O)N[C@H](C(=O)N[C@H](C(=O)O)c4cc(O)cc(O)c4-c4cc3ccc4O)[C@H](O)c3ccc(c(Cl)c3)Oc3cc2cc(c3O[C@@H]2O[C@H](CO)[C@@H](O)[C@H](O)[C@H]2O[C@H]2C[C@](C)(N)[C@H](O)[C@H](C)O2)Oc2ccc(cc2Cl)[C@H]1O` [VANCOMYCIN] the MIC50 (Clostridioides difficile [19]) was 1 µg/mL (≈ 0.69 µM) and the MIC90 (Clostridioides difficile [19]) was 4 µg/mL (≈ 2.76 µM).

With `Cc1ncc([N+](=O)[O-])n1CCO` [METRONIDAZOLE] the MIC50 (Clostridioides difficile [19]) was 1 µg/mL (≈ 5.84 µM) and the MIC90 (Clostridioides difficile [19]) was 4 µg/mL (≈ 23.4 µM).

In the case of `CCc1cc(Nc2cc(=O)n(CC3CCN(C(=O)c4ccno4)CC3)c(=O)[nH]2)ccc1C`, the MIC (Staphylococcus aureus [22]) is reported as 16 µg/mL (≈ 36.6 µM), the IC50 [23] is reported as 100 nM and the Activity (Enterococcus faecalis [24]) is reported as “Active”. It also gave an ED50 (Staphylococcus aureus [25]) of 10 mg/kg, an MIC (Streptococcus pneumoniae [26]) of 8 µg/mL (≈ 18.3 µM) and an MIC (Enterococcus faecalis [27]) of 8 µg/mL (≈ 18.3 µM).
